# Experimental data published in US8148391B2 (Cephalon, Inc., priority 2006, dated 2012).
# Where two headings read alike, the source gives them in different places.
# How the values were obtained:
# [1] = biological target: T1, baculovirus-expressed ALK (Homo sapiens, UniProt Q9UM73); experiment: ALK Kinase Assay (ELISA-type, time-resolved fluorescence); format: biochemical
# T1 construct: host or cells: baculovirus expression system
# Method in brief: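 Substrate coating: phospholipase C-γ, 10 μg/mL in TBS. Kinase step: 30 ng/ml ALK, 15 min, 37° C. Detection and analysis: Eu-N1 PT66 antibody, with IC50 fitted as a sigmoidal variable-slope dose-response curve.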
# [2] = biological target: T2, c-Met (cytoplasmic domain) (Homo sapiens, UniProt P08581); experiment: c-Met Kinase Assay (same methods as for ALK, with modifications); format: biochemical
# T2 construct: 10 ng/mL c-Met (cytoplasmic domain, Invitrogen Corporation #PV3143); purchased Invitrogen Corporation PV3143
# Method in brief: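 Wells were coated with 10 μg/mL phospholipase C-γ substrate in TBS, and reactions were started with 10 ng/mL c-Met cytoplasmic domain and run at 37° C for 15 minutes. Phosphorylated product was detected with Eu-N1-labeled PT66 antibody. IC50 values came from sigmoidal variable-slope fits of percent inhibition versus log compound concentration.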
# [3] = 1 μM ATP (Km level), read-out: ALK Activity (ALK Kinase Inhibition, IC50)
# [4] = 1 μM ATP (Km level), read-out: cMet Activity (c-Met Kinase Inhibition, IC50)
# [5] = ALK kinase inhibition, 1 μM ATP, read-out: ALK Activity
# [6] = c-Met kinase inhibition, 1 μM ATP, read-out: cMet Activity
# [7] = 1 μM ATP (Km level), 30 ng/ml ALK, 37° C., 15 minutes, read-out: ALK Activity (ALK kinase inhibition, IC50 class)
# [8] = 1 μM ATP (Km level), 10 ng/mL c-Met, read-out: cMet Activity (c-Met kinase inhibition, IC50 class)
# [9] = ALK kinase inhibition, 1 μM ATP (Km level), read-out: ALK Activity
# [10] = c-Met kinase inhibition, 1 μM ATP (Km level), read-out: cMet Activity
# T2 sequence (P08581 956-1390 limits assumed): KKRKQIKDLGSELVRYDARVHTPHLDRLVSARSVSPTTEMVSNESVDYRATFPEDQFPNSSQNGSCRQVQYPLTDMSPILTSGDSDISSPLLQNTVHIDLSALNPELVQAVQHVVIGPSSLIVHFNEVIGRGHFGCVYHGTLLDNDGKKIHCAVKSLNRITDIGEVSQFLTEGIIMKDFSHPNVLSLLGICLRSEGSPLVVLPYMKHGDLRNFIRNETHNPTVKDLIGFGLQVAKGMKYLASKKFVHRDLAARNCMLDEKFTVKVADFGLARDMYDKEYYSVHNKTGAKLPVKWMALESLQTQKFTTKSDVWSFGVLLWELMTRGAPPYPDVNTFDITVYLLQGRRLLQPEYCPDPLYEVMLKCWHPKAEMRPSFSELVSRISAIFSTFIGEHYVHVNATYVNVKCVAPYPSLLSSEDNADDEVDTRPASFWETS
# T1 sequence (Q9UM73 19-1620): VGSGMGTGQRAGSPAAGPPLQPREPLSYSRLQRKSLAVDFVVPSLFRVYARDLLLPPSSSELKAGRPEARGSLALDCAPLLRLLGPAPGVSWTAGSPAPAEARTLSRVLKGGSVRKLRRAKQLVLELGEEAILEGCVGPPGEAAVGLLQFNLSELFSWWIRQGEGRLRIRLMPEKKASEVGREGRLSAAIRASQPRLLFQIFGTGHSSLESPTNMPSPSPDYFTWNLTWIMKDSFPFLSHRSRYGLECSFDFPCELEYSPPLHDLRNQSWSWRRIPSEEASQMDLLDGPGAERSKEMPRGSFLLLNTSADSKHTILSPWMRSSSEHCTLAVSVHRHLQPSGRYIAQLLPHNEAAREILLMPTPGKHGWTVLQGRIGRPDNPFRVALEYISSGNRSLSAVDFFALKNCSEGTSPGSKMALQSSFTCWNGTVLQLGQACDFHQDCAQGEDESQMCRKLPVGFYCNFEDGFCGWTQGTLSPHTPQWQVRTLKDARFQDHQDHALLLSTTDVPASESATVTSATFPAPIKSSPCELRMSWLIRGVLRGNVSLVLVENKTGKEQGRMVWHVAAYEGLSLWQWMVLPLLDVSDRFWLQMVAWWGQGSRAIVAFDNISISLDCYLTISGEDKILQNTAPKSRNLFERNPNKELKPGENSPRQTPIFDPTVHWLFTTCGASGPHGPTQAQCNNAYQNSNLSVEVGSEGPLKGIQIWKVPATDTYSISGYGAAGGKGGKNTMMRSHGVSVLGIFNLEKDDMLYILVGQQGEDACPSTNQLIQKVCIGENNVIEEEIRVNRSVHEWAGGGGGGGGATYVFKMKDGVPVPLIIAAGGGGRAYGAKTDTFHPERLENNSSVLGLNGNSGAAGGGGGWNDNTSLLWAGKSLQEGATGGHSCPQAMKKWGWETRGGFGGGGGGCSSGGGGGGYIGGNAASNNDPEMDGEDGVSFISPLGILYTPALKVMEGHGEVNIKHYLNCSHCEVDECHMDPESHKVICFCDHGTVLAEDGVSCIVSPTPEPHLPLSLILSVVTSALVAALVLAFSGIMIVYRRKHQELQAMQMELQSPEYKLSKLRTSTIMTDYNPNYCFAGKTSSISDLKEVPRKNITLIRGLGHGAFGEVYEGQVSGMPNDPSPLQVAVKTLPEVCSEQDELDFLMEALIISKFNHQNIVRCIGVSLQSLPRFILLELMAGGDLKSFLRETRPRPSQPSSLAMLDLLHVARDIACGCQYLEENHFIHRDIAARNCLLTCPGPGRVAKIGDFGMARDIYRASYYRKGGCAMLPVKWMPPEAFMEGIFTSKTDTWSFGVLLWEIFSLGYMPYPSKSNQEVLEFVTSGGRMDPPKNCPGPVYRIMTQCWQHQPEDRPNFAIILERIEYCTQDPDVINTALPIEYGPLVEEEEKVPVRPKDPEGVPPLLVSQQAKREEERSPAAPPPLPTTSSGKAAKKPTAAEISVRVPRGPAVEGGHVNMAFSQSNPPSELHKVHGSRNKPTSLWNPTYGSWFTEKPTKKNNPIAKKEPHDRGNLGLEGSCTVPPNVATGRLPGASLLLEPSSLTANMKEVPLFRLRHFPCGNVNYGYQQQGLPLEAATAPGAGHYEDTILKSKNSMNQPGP
compound,measurement,setting,value
"CNC(=O)c1cccc(F)c1Nc1nc(Nc2ccc3c(c2)CCC(N2CCN(C)CC2)CC3)ncc1Cl (racemic) [Example 899, 2-{5-Chloro-2-[7-(4-methyl-piperazin-1-yl)-6,7,8,9-tetrahydro-5H-benzocyclohepten-2-ylamino]-pyrimidin-4-ylamino}-3-fluoro-N-methyl-benzamide]",IC50,[1]; [3],< 100 nM
same,IC50,[2]; [4],< 100 nM
"CNC(=O)c1scc(C)c1Nc1nc(Nc2ccc3c(c2)CC(=O)NCC3)ncc1Cl [Example 1812, 3-[5-Chloro-2-(4-oxo-2,3,4,5-tetrahydro-1H-benzo[d]azepin-7-ylamino)-pyrimidin-4-ylamino]-4-methyl-thiophene-2-carboxylic acid methylamide]",IC50,[1]; [5],< 100 nM
same,IC50,[2]; [6],< 100 nM
"COc1cc2c(cc1Nc1ncc(Cl)c(Nc3ccccc3S(=O)(=O)N3CCC(O)C3)n1)CCC(NCCO)CC2 (stereo not shown) [Example 1088, 1-(2-{5-Chloro-2-[7-(2-hydroxy-ethylamino)-3-methoxy-6,7,8,9-tetrahydro-5H-benzocyclohepten-2-ylamino]-pyrimidin-4-ylamino}-benzenesulfonyl)-pyrrolidin-3-ol]",IC50,[1]; [7],< 100 nM
same,IC50,[2]; [8],1000 to 10000 nM
"COc1cc2c(cc1Nc1ncc(Cl)c(Nc3ccccc3C(=O)OC(C)C)n1)CCN(CCCN(C)C)C(=O)C2 [Example 1111, 2-{5-Chloro-2-[3-(3-dimethylamino-propyl)-8-methoxy-2-oxo-2,3,4,5-tetrahydro-1H-benzo[d]azepin-7-ylamino]-pyrimidin-4-ylamino}-benzoic acid isopropyl ester]",IC50,[1]; [7],< 100 nM
same,IC50,[2]; [8],> 10000 nM
"CNC(=O)c1cccc(F)c1Nc1nc(Nc2ccc3c(c2)C(C)(C)NC(=O)CC3)ncc1Cl [Example 1831, 2-(5-Chloro-2-(1,1-dimethyl-3-oxo-2,3,4,5-tetrahydro-1H-benzo[c]azepin-8-ylamino)pyrimidin-4-ylamino)-3-fluoro-N-methylbenzamide]",IC50,[1]; [5],1000 to 10000 nM
same,IC50,[2]; [6],< 100 nM
"COc1cc2c(cc1Nc1ncc(Cl)c(Nc3ccccc3OCC#N)n1)CCN(CC(=O)N(C)C)CC2 [Example 1147, 2-{7-[5-Chloro-4-(2-cyanomethoxy-phenylamino)-pyrimidin-2-ylamino]-8-methoxy-1,2,4,5-tetrahydro-benzo[d]azepin-3-yl}-N,N-dimethyl-acetamide]",IC50,[1]; [7],< 100 nM
same,IC50,[2]; [8],> 10000 nM
"COc1cc2c(cc1Nc1ncc(Cl)c(Nc3ccccc3S(=O)(=O)N3CC[C@@H](O)C3)n1)CCN(CC(=O)N(C)C)CC2 [Example 1205, 2-(7-{5-Chloro-4-[2-((R)-3-hydroxy-pyrrolidine-1-sulfonyl)-phenylamino]-pyrimidin-2-ylamino}-8-methoxy-1,2,4,5-tetrahydro-benzo[d]azepin-3-yl)-N,N-dimethyl-acetamide]",IC50,[1]; [7],< 100 nM
same,IC50,[2]; [8],1000 to 10000 nM
"C#CCNC(=O)c1cccc(F)c1Nc1nc(Nc2ccc3c(c2)NC(=O)CCC3(C)C)ncc1Cl [Example 1406, 2-[5-Chloro-2-(5,5-dimethyl-2-oxo-2,3,4,5-tetrahydro-1H-benzo[b]azepin-8-ylamino)-pyrimidin-4-ylamino]-3-fluoro-N-prop-2-ynyl-benzamide]",IC50,[1]; [7],100 to 1000 nM
same,IC50,[2]; [8],< 100 nM
"CCN1C(=O)CCC(C)(C)c2ccc(Nc3ncc(Cl)c(Nc4ccccc4S(C)(=O)=O)n3)cc21 [Example 1248, 8-[5-Chloro-4-(2-methanesulfonyl-phenylamino)-pyrimidin-2-ylamino]-1-ethyl-5,5-dimethyl-1,3,4,5-tetrahydro-1-benzazepin-2-one]",IC50,[1]; [7],< 100 nM
same,IC50,[2]; [8],< 100 nM
"CC(=O)N1CC2CCC(C1)c1cc(Nc3ncc(Cl)c(N[C@@H]4CCCC[C@H]4NS(C)(=O)=O)n3)ccc12 (stereo partly drawn) [Example 295, N-{(1R,2R)-2-[2-(10-Acetyl-10-aza-tricyclo[6.3.2.0*2,7*]trideca-2,4,6-trien-4-ylamino)-5-chloro-pyrimidin-4-ylamino]-cyclohexyl}-methanesulfonamide]",IC50,[1]; [9],< 100 nM
same,IC50,[2]; [10],100 to 1000 nM
"CNC(=O)CN1CCc2cc(Nc3ncc(Cl)c(N[C@@H]4CCCC[C@H]4NS(C)(=O)=O)n3)c(OC)cc2CC1 [Example 1112, 2-{7-[5-Chloro-4-((1R,2R)-2-methanesulfonylamino-cyclohexylamino)-pyrimidin-2-ylamino]-8-methoxy-1,2,4,5-tetrahydro-benzo[d]azepin-3-yl}-N-methyl-acetamide]",IC50,[1]; [7],< 100 nM
same,IC50,[2]; [8],> 10000 nM
"C=CCOc1cc(N(C)C)cc(F)c1Nc1nc(Nc2ccc3c(c2)CCN(CCOC)CC3)ncc1Cl [Example 1710, N*4*-(2-Allyloxy-4-dimethylamino-6-fluoro-phenyl)-5-chloro-N*2*-[3-(2-methoxy-ethyl)-2,3,4,5-tetrahydro-1H-benzo[d]azepin-7-yl]-pyrimidine-2,4-diamine]",IC50,[1]; [5],< 100 nM
same,IC50,[2]; [6],100 to 1000 nM
"CCOC(=O)N1CCCOc2ccc(Nc3ncc(Cl)c(Nc4ccsc4C(=O)NC)n3)cc21 [Example 1411, 2-[5-Chloro-4-(2-methylcarbamoyl-thiophen-3-ylamino)-pyrimidin-2-ylamino]-7,8-dihydro-6H-5-oxa-9-aza-benzocycloheptene-9-carboxylic acid ethyl ester]",IC50,[1]; [7],100 to 1000 nM
same,IC50,[2]; [8],1000 to 10000 nM
"CCS(=O)(=O)N[C@@H]1CCCC[C@H]1Nc1nc(Nc2ccc3c(c2)CCN(CCOC)CC3)ncc1Cl [Example 453, Ethanesulfonic acid ((1R,2R)-2-{5-chloro-2-[3-(2-methoxy-ethyl)-2,3,4,5-tetrahydro-1H-benzo[d]azepin-7-ylamino]-pyrimidin-4-ylamino}-cyclohexyl)-amide]",IC50,[1]; [9],< 100 nM
same,IC50,[2]; [10],1000 to 10000 nM
"CNC(=O)c1cccc(F)c1Nc1nc(Nc2ccc3c(c2)N(C(=O)CN2CCCC2)CCCC3(C)C)ncc1Cl [Example 1603, 2-{5-Chloro-2-[5,5-dimethyl-1-(2-pyrrolidin-1-yl-acetyl)-2,3,4,5-tetrahydro-1H-benzo[b]azepin-8-ylamino]-pyrimidin-4-ylamino}-3-fluoro-N-methyl-benzamide]",IC50,[1]; [5],100 to 1000 nM
same,IC50,[2]; [6],100 to 1000 nM
"CNC(=O)c1sccc1Nc1nc(Nc2ccc3c(c2)N(C(=O)CN2CCCC2)CCCO3)ncc1Cl [Example 1705, 3-{5-Chloro-2-[9-(2-pyrrolidin-1-yl-acetyl)-6,7,8,9-tetrahydro-5-oxa-9-aza-benzocyclohepten-2-ylamino]-pyrimidin-4-ylamino}-thiophene-2-carboxylic acid methylamide]",IC50,[1]; [5],100 to 1000 nM
same,IC50,[2]; [6],100 to 1000 nM
"CNC(=O)c1ccccc1Nc1nc(Nc2ccc3c(c2)C2CN(C(C)C)CC3O2)ncc1Cl (stereo not shown) [Example 62, 2-[5-Chloro-2-(10-isopropyl-12-oxa-10-aza-tricyclo[6.3.1.0*2,7*]dodeca-2,4,6-trien-4-ylamino)-pyrimidin-4-ylamino]-N-methyl-benzamide]",IC50,[1]; [9],< 100 nM
same,IC50,[2]; [10],100 to 1000 nM
"COCCNC1CCc2cc(Nc3ncc(Cl)c(N[C@@H]4CCCC[C@H]4NS(C)(=O)=O)n3)c(OC)cc2CC1 (stereo partly drawn) [Example 896, N-((1R,2R)-2-{5-Chloro-2-[3-methoxy-7-(2-methoxy-ethylamino)-6,7,8,9-tetrahydro-5H-benzocyclohepten-2-ylamino]-pyrimidin-4-ylamino}-cyclohexyl)-methanesulfonamide]",IC50,[1]; [3],< 100 nM
same,IC50,[2]; [4],> 10000 nM
"CCNC(=O)c1cccc(F)c1Nc1nc(Nc2cc3c(cc2OC)CCN(CC(=O)NC)CC3)ncc1Cl [Example 1364, 2-[5-Chloro-2-(8-methoxy-3-methylcarbamoylmethyl-2,3,4,5-tetrahydro-1H-benzo[d]azepin-7-ylamino)-pyrimidin-4-ylamino]-N-ethyl-3-fluoro-benzamide]",IC50,[1]; [7],< 100 nM
same,IC50,[2]; [8],1000 to 10000 nM
"CC(C)N1CC2CCC(C1)c1cc(Nc3ncc(Cl)c(N[C@@H]4CCCC[C@H]4NS(C)(=O)=O)n3)ccc12 (stereo partly drawn) [Example 296, N-{(1R,2R)-2-[5-Chloro-2-(10-Isopropyl-10-aza-tricyclo[6.3.2.0*2,7*]trideca-2,4,6-trien-4-ylamino)-pyrimidin-4-ylamino]-cyclohexyl}-methanesulfonamide]",IC50,[1]; [9],< 100 nM
same,IC50,[2]; [10],100 to 1000 nM
"COCCNC1CCc2cc(Nc3ncc(Cl)c(Nc4c(OC)ccc5c4CN(S(C)(=O)=O)CC(=O)N5)n3)c(OC)cc2CC1 (stereo not shown) [Example 750, 6-{5-Chloro-2-[3-methoxy-7-(2-methoxy-ethylamino)-6,7,8,9-tetrahydro-5H-benzocyclohepten-2-ylamino]-pyrimidin-4-ylamino}-4-methanesulfonyl-7-methoxy-1,3,4,5-tetrahydro-benzo[e][1,4]diazepin-2-one]",IC50,[1]; [3],1000 to 10000 nM
same,IC50,[2]; [4],> 10000 nM
"COc1cc2c(cc1Nc1ncc(Cl)c(Nc3ccccc3S(=O)(=O)N(C)C)n1)N(CC(=O)N(C)C)C(=O)CN(CC(=O)N(C)C)C2 [Example 1656, 2-{8-[5-Chloro-4-(2-dimethylsulfamoyl-phenylamino)-pyrimidin-2-ylamino]-1-dimethylcarbamoylmethyl-7-methoxy-2-oxo-1,2,3,5-tetrahydro-benzo[e][1,4]diazepin-4-yl}-N,N-dimethyl-acetamide]",IC50,[1]; [5],100 to 1000 nM
same,IC50,[2]; [6],> 10000 nM
"Cc1cccnc1-c1ccccc1Nc1nc(Nc2ccc3c(c2)CCC(O)CC3)ncc1Cl (stereo not shown) [Example 1021, 2-{5-Chloro-4-[2-(3-methyl-pyridin-2-yl)-phenylamino]-pyrimidin-2-ylamino}-6,7,8,9-tetrahydro-5H-benzocyclohepten-7-ol]",IC50,[1]; [7],100 to 1000 nM
same,IC50,[2]; [8],1000 to 10000 nM
